Assay results from PMC8931161 (2022).
Blank lines part the entries; values can stand above or below the molecule they belong to.

Tests used:
[1] = tested on: PQS-675-WT-FRET (RNA, G4) GGGCGGGCGGCCUGCAGGGACAUGGG; experiment: FRET melting; settings: 10 mM Tris-HCl pH 7.5, 1 µM PDS, 200 nM RNA
[2] = tested on: PQS-675-Mut-FRET (RNA, single strand) GAGCGAGCGGCCUGCAGAGACAUGAG; experiment: FRET melting; settings: 150 mM K+; 10 mM Tris-HCl pH 7.5; 1 µM PDS, 200 nM RNA; derived from two Tm (38.33, 38.03)
[3] = tested on: PQS-675-WT (RNA, G4) GGGCGGGCGGCCUGCAGGGACAUGGG; experiment: CD melting at 264 nm; settings: 10 mM Tris-HCl pH 7.5, 5 µM RNA, PDS concentration not stated
[4] = tested on: PQS-675-WT-biotin (RNA, G4) GGGCGGGCGGCCUGCAGGGACAUGGG; experiment: bio-layer interferometry; settings: K+ (folded in 150 mM KCl); PBST (PBS, 0.01% Tween-20), 25 °C; PDS 0.5-8 µM; 1:1 model; RNA immobilised
[5] = tested on: PQS-675-Mut-biotin (RNA, single strand) GAGCGAGCGGCCUGCAGAGACAUGAG; experiment: bio-layer interferometry; settings: K+ (folded in 150 mM KCl); PBST (PBS, 0.01% Tween-20), 25 °C; PDS 0.5-8 µM; 1:1 model; RNA immobilised
[6] = tested on: PQS-675-WT (RNA, G4) GGGCGGGCGGCCUGCAGGGACAUGGG; experiment: fluorescence light-up; settings: 150 mM K+, 10 mM Tris-HCl pH 7.5, 2 µM RNA
[7] = tested on: PQS-675-Mut (RNA, single strand) GAGCGAGCGGCCUGCAGAGACAUGAG; experiment: fluorescence light-up; settings: 150 mM K+, 10 mM Tris-HCl pH 7.5, 2 µM RNA

- ΔTm ([1]; 150 mM K+, derived from two Tm (74.00, 77.48)): 3.48 °C
- ΔTm ([1]; 150 mM Li+, derived from two Tm (63.27, 65.71)): 2.44 °C
- ΔTm [2]: -0.30 °C
- ΔTm ([3]; 150 mM K+, derived from two Tm (70.00, 74.00)): 4.00 °C
- ΔTm ([3]; 150 mM Li+, derived from two Tm (64.00, 64.00)): 0.00 °C
- KD [4]: 0.6049 ± 0.00284 µM
- KD [5]: 3.327 ± 7e-05 µM
Structure (SMILES): NCCOc1cc(C(=O)Nc2cc(OCCN)c3ccccc3n2)nc(C(=O)Nc2cc(OCCN)c3ccccc3n2)c1

- binding ([6]; 2 µM ThT): yes
- binding ([7]; 2 µM ThT, decreased but still strong, non-specific): yes
Structure (SMILES): Cc1ccc2c(c1)sc(-c1ccc(N(C)C)cc1)[n+]2C

- binding ([6]; 2 µM NMM): yes
- binding ([7]; 2 µM NMM, intensity decreased): weak
Structure (SMILES): CCc1c(C)c2cc3nc(cc4nc(cc5c(CC)c(C)c(cc1[nH]2)n5C)C(C)=C4CCC(=O)O)C(CCC(=O)O)=C3C
